Measurements as given in PMC4471902, “Block of NMDA receptor channels by endogenous neurosteroids: implications for the agonist induced conformational states of the channel vestibule” (Scientific Reports, 2015).

Columns and labels:
[1] = biological target: T1, GluN1(T648A)/GluN2B receptors (Rattus norvegicus, UniProt P35439+Q00960, T648A); test: Whole-cell patch-clamp of GluN1(T648A)/GluN2B receptor responses in HEK293 cells; format: cell-based; settings: for sensitivity of spontaneous currents (absence of glutamate and glycine) to antagonist: 100 μM
T1 construct: expressed in transfected cells; host or cells: HEK293
From the text: (§1) Human embryonic kidney (HEK293) cells were transfected with expression vectors containing: GluN1–1a (GenBank accession number U08261)[52]; GluN2B (GenBank accession number M91562); GluN1-4a(F484A), (generous gift from Dr. J. J. Woodward)[53] (Smothers & Woodward, 2009); GluN3A (generous gift from Dr. S. A. Lipton)[54] (GenBank accession number NM_138546); GluN1ΔN with deleted 354 amino acids in the NTD (32 to 386); GluN1ΔC with an introduced stop codon in 838 of the CTD GluN2BΔN) with deleted 354 amino acids in the NTD (32 to 386); GluN2BΔC with an introduced stop codon in 844 of the CTD[55]; GluR0 (GenBank accession number Synechocystis PCC 6803) (generous gift from Dr. M. L. Mayer)[18]; and green fluorescent protein (GFP) (pQBI 25, Takara, Tokyo, Japan) genes, as described previously. The Quick-Change site-directed mutagenesis kit (Agilent Technologies, Santa Clara, CA, USA) was used to generate specific point mutations in the M1/M3 region according to the manufacturer’s instructions using manually designed primers purchased from Sigma. Modified DNA plasmids were transformed into competent XL10-Gold E.coli cells, positive clones were selected, and isolated DNA was sequenced. […] All mutations were verified by DNA sequencing (Macrogen, Seoul, Korea or SeQme, Dobris, Czech Republic). The amino acids are numbered according to the full-length protein, including the signal peptide, with the initiating methionine as 1.
(§2) Experiments were performed 24–48 hrs after transfection on cells transfected with GluN1/GluN2B/GFP plasmids. Whole-cell voltage-clamp recordings from HEK293 cells were made with a patch-clamp amplifier (Axopatch 200B; Axon Instruments, Inc., Foster City, CA) after a capacitance and series resistance (<10 MΩ) compensation of 80–90%.
(§3) Patch pipettes (3–5 MΩ) were filled with a solution containing (in mM): 120 gluconic acid, 15 CsCl, 10 BAPTA, 10 HEPES, 3 MgCl2, 1 CaCl2, and 2 ATP-Mg salt (pH-adjusted to 7.2 with CsOH). When GluR0 receptor responses were studied, intracellular solution contained (in mM): 120 gluconic acid, 15 KCl, 10 BAPTA, 10 HEPES, 3 MgCl2, 1 CaCl2, and 2 ATP-Mg salt (pH-adjusted to 7.2 with KOH). Extracellular solution (ECS) contained the following (in mM): 160 NaCl, 2.5 KCl, 10 HEPES, 10 glucose, 0.2 EDTA, and 0.7 CaCl2 (pH-adjusted to 7.3 with NaOH). Glycine (10 μM), an NMDAR co-agonist, was present in the control and test solutions. All (PA-S and PA-A) solutions were made from freshly prepared 20 mM PA-S and 5 mM PA-A stock in dimethyl sulfoxide (DMSO). The final dilution to ECS was made at 50 °C and followed by 1 min sonication (SONOREX DIGITEC DT 100/H, BADELIN electronic, Berlin, Germany). The same concentration of DMSO was added to all extracellular solutions. Drug applications were made with a microprocessor-controlled multibarrel fast-perfusion system. Changes in the glutamate-induced current in HEK293 cells transfected by GluN1/GluN2B subunits were used to estimate the rate of solution exchange around the cell. Standard ECS was switched to the ECS diluted by water (50%) during glutamate application. The osmolarity was adjusted by sucrose to match the standard ECS. Glutamate (1 mM), glycine (10 μM) and pH was maintained constant in both solutions. The solution exchange rate was estimated to be τ = 4.3 ± 0.3 ms (n = 6) for lifted cells and τ = 12.0 ± 0.9 ms (n = 6) for the attached cells.
The IC50 was determined from a single dose of a steroid using the formula [drawing 1] where I is the relative degree of inhibition and [steroid] is the steroid concentration used. Calculations of IC50 were made assuming 100% inhibition at saturating steroid concentration this is valid for both PA-S and PA-A[12][13]. […]

[2] = biological target: T2, GluN1/GluN2B receptors (Rattus norvegicus, UniProt P35439+Q00960); parameters: method as in PMID 22188257; settings: from −60 to +60 mV; cited from earlier work
T2 construct: expressed in transfected cells; host or cells: HEK293

[3] = biological target: T3, GluN1(V656A)/GluN2B receptors (Rattus norvegicus, UniProt P35439+Q00960, V656A); test: Whole-cell patch-clamp of GluN1(V656A)/GluN2B receptor responses in HEK293 cells; format: cell-based
T3 construct: expressed in transfected cells; host or cells: HEK293
From the text: as §1, §2
(§4) Patch pipettes (3–5 MΩ) were filled with a solution containing (in mM): 120 gluconic acid, 15 CsCl, 10 BAPTA, 10 HEPES, 3 MgCl2, 1 CaCl2, and 2 ATP-Mg salt (pH-adjusted to 7.2 with CsOH). […]

[4] = biological target: T4, GluN1(A649T)/GluN2B receptors (Rattus norvegicus, UniProt P35439+Q00960, A649T); test: Whole-cell patch-clamp of GluN1(A649T)/GluN2B receptor responses in HEK293 cells; format: cell-based
T4 construct: expressed in transfected cells; host or cells: HEK293
From the text: as §1, §2, §4

[5] = biological target: T2, GluN1/GluN2B receptors; test: Whole-cell patch-clamp of GluN1/GluN2B receptor responses in transfected HEK293 cells; format: cell-based
From the text: as §1, §2, §3
Experiments were performed at room temperature (21–25 °C). Data were collected (low-pass filtered at 2 kHz and sampled at 10 kHz) and analyzed using pClamp 10 (Molecular Devices). Unless otherwise mentioned, error bars represent SEM; statistical comparison of groups was performed using Student’s t-test (p < 0.05 was used to determine the significance).
The IC50 was determined from a single dose of a steroid using the formula [drawing 1] where I is the relative degree of inhibition and [steroid] is the steroid concentration used. […]

[6] = PA-A 20 μM, fit to the Boltzmann equation
[7] = PA-A 20 μM, fit to the Boltzmann equation, read-out: Kd(0 mV)

T1 sequence (Q00960 27-1482, other chains not shown): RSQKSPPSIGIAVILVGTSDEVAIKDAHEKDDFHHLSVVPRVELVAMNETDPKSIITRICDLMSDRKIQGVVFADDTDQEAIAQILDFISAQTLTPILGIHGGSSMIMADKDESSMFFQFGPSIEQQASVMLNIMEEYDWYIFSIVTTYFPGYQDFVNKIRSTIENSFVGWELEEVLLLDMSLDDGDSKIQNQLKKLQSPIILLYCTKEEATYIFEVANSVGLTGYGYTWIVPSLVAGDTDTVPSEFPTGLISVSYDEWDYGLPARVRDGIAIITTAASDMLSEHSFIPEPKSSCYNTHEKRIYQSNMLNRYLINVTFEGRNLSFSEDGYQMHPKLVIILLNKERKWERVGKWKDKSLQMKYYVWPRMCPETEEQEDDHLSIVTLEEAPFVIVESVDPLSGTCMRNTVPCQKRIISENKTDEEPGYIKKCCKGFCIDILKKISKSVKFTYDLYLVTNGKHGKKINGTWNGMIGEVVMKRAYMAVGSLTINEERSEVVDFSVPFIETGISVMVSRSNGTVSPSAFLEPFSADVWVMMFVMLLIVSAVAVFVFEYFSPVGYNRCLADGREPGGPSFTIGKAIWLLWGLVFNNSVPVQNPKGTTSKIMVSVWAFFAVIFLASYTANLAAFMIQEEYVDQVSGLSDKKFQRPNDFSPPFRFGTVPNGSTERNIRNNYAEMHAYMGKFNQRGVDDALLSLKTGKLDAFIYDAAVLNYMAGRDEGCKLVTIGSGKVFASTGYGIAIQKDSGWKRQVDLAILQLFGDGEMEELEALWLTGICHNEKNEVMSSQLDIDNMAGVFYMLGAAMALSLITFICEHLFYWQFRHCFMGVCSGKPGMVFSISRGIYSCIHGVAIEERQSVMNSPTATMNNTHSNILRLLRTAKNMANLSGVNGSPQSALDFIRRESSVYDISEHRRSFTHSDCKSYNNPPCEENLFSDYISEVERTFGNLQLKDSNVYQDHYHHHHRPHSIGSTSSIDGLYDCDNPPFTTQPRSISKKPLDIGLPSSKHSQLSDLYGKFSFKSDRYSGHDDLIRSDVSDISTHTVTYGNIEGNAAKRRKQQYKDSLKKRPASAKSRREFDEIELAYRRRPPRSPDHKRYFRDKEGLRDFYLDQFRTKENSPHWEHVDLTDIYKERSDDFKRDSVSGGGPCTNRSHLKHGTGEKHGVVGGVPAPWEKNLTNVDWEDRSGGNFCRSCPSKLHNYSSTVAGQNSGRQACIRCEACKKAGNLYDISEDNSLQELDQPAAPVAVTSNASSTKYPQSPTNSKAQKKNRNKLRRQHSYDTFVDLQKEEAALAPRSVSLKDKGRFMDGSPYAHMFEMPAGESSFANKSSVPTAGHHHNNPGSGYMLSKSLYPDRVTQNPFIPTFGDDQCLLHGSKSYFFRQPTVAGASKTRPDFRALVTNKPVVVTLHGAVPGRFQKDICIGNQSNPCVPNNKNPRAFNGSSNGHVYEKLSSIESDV
T4 sequence (Q00960 27-1482, other chains not shown): as above
T2 sequence (Q00960 27-1482, other chains not shown): as above

SMILES | sensitivity of spontaneous currents (absence of glutamate and glycine) to antagonist [1] | voltage dependence of inhibition [2] | voltage dependence of steroid inhibition [3] | δ (apparent electrical distance of the binding site) ([3]; fit to the Boltzmann equation) | Kd ([3]; fit to the Boltzmann equation, read-out: Kd(0 mV)) | voltage dependence of steroid inhibition [4] | δ (apparent electrical distance of the binding site) [4, 6] | Kd [4, 7] | voltage dependence of steroid inhibition [1] | δ (apparent electrical distance of the binding site) [1, 6] | Kd [1, 7] | voltage dependence of steroid inhibition ([5]; WT GluN1/GluN2B) | δ (apparent electrical distance of the binding site) ([5]; WT, PA-A 20 μM, fit to the Boltzmann equation) | Kd ([5]; WT, PA-A 20 μM, fit to the Boltzmann equation, read-out: Kd(0 mV)) | mode of inhibition ([5]; dependence on receptor activation by agonists)
N[C@H](CCCP(=O)(O)O)C(=O)O [D-AP5, D-amino-5-phosphonopentanoic acid, reference compound] | only moderately sensitive | – | – | – | – | – | – | – | – | – | – | – | – | – | –
O=C(O)c1cc(O)c2ccc(Cl)cc2n1 [7-CKA, 7-Cl-kynurenic acid, reference compound] | only moderately sensitive | – | – | – | – | – | – | – | – | – | – | – | – | – | –
CC(=O)C1CCC2C3CC[C@@H]4C[C@H](OC(=O)C[N+](C)(C)C)CC[C@]4(C)C3CC[C@]12C (stereo partly drawn) [PA-A, 5β-pregnan-20-on 3α-yl-[(2-trimethylammonio)-ethanoate]] | – | voltage independent | intermediate voltage dependence | 0.19 | 193 µM | intermediate voltage dependence | 0.23 | 745 µM | strongly voltage dependent | 0.29 | 340 µM | weak voltage dependence | 0.15 | 335 µM | use-dependent
